Literature values in patent US20120184023A1, “Method of Preparing A Glycoside Of A Mono- Or Diacylglycerol Product From A Plant Material” (HYBEN VITAL LICENS APS, priority 2006, published 2012).

Assays:
mononuclear leukocytes = settings: reported in WO 03/043613
[1] = tested on: poly-morphonuclear monocytes; settings: reported in WO 03/043613

## CC/C=C\C/C=C\C/C=C\CCCCCCCC(=O)OCC(CO[C@@H]1O[C@H](CO)[C@H](O)[C@H](O)[C@H]1O)OC(=O)CCCCCCC/C=C\C/C=C\C/C=C\CC (stereo partly drawn) [GOPO, 3-β-D-galactopyranosyloxy-2-(octadeca-9Z,12Z,15Z-trienoyloxy) propanyloctadeca-9Z,12Z,15Z-trienoate]
Mononuclear leukocytes
  chemotaxis of mononuclear leukocytes: alleviating
[1]
  chemiluminescence of poly-morphonuclear monocytes: alleviating chemiluminescence
